This assay can be described thus: Inhibition of rabbit recombinant GSK3-beta. Details: species or system Oryctolagus cuniculus.
For orientation: IC50 means the midpoint of a concentration-inhibition curve. Regarding `CNc1nc(=O)n(C)s1`, the IC50 was determined as 18 µM.

In the case of `Cn1sc(NCC(=O)O)nc1=O`, the IC50 was found to be 75 µM.

`c1ccc(-c2nsc(-c3ccccc3)n2)cc1`: the IC50 is over 100 µM.

On to `O=c1nc(NCc2ccccc2)sn1Cc1ccccc1`, for which the IC50 was over 100 µM.

As for `Nc1nc(=O)[nH]s1`, the IC50 was 25 µM.

`CCOC(=O)c1nc(-c2cc(C(C)(C)C)c(O)c(C(C)(C)C)c2)ns1`: the IC50 is over 100 µM.

With `O=C(/N=c1\sn(Cc2ccccc2)c(=O)n1Cc1ccccc1)c1ccccc1`, the half-inhibitory concentration (IC50) is over 100 µM.

On to `Cn1s/c(=N\C(=O)c2ccccc2)n(C)c1=O`, for which the concentration for half-maximal inhibition (IC50) was over 100 µM.

Turning to `CCOC(=O)c1nc(-c2ccc([N+](=O)[O-])cc2)ns1`, the IC50 was over 100 µM.

Turning to `Cc1ccccc1-c1nsc(=O)[nH]1`, the IC50 is over 100 µM.

On to `Cn1sc(NCc2ccccc2)nc1=O`, for which the concentration for half-maximal inhibition (IC50) was 20 µM.

In the case of `CC(=O)Nc1nsc(NC(C)=O)n1`, the IC50 was over 100 µM.

For the compound `Cn1s/c(=N\C(=O)c2ccccc2)n(CC#N)c1=O`, the IC50 is over 100 µM.

Turning to `Cn1sc(NC(=O)c2ccccc2)nc1=O`, the IC50 was over 100 µM.

For `Cn1s/c(=N\Cc2ccccc2)n(Cc2ccccc2)c1=O`, the half-inhibitory concentration (IC50) was over 100 µM.

`O=C(Nc1nc(=O)n(Cc2ccccc2)s1)c1ccccc1`: the IC50 was over 100 µM.

Regarding `O=c1nc(NCc2ccccc2)s[nH]1`, the half-inhibitory concentration (IC50) is 6.5 µM.

Turning to `Cn1sc(NCCO)nc1=O`, the IC50 was over 100 µM.

Turning to `CCNc1nsc(NCC)n1`, the IC50 is over 100 µM.

For `CCOC(=O)Cn1c(-c2ccc(C)cc2)nsc1=O`, the IC50 is over 100 µM.

As for `CCOC(=O)Cn1c(=O)n(C)s/c1=N\C(=O)c1ccccc1`, the IC50 is over 100 µM.

As to `Cn1s/c(=N\c2ccc(Br)cc2)n(C)c1=O`, the IC50 is over 100 µM.

Take `Cc1ccc(-c2nsc(S(=O)(=O)c3ccc(C)cc3)n2)cc1`: the IC50 was over 100 µM.

For the compound `CCOC(=O)Nc1nc(=O)n(C)s1`, the IC50 is over 100 µM.

For the compound `Cn1sc(Nc2ccccc2)nc1=O`, the IC50 was 12.5 µM.

As to `Cn1sc(N)nc1=O`, the IC50 came to 40 µM.

On to `CCOC(=O)c1nc(-c2ccccc2)ns1`, for which the IC50 is over 100 µM.

Regarding `Cn1sc(NCCc2ccccc2)nc1=O`, the IC50 worked out at 15 µM.

On to `Cn1sc(Nc2ccc(Br)cc2)nc1=O`, for which the concentration for half-maximal inhibition (IC50) stood at 15 µM.

On to `Cn1s/c(=N\C(=O)c2ccccc2)n(Cc2ccccc2)c1=O`, for which the IC50 was over 100 µM.

As for `ClCc1nc(-c2ccccc2)ns1`, the IC50 was over 100 µM.

Take `CCOC(=O)Cn1c(=O)n(C)s/c1=N\Cc1ccccc1`: the IC50 was over 100 µM.

Take `Cc1ccc(-c2nsc(=O)[nH]2)cc1`: the IC50 is over 100 µM.

Turning to `CCOC(=O)c1nc(-c2ccc(Cl)cc2)ns1`, the IC50 is over 100 µM.

Regarding `O=C(/N=c1\s[nH]c(=O)n1Cc1ccccc1)c1ccccc1`, the IC50 was over 100 µM.

For the compound `CCOC(=O)Cn1c(=O)n(Cc2ccccc2)s/c1=N\C(=O)c1ccccc1`, the IC50 was over 100 µM.

As for `O=C(O)Cn1c(=O)n(Cc2ccccc2)s/c1=N\C(=O)c1ccccc1`, the IC50 was over 100 µM.

For `O=C(Nc1nc(=O)[nH]s1)c1ccccc1`, the IC50 is over 100 µM.

In the case of `c1cc(Nc2nsc(Nc3ccncc3)n2)ccn1`, the 50% inhibitory concentration (IC50) is over 100 µM.

Turning to `CCOC(=O)c1nc(-c2ccc(OC)cc2)ns1`, the IC50 was over 100 µM.

For the compound `CCOC(=O)CNc1nc(=O)n(C)s1`, the IC50 came to 20 µM.

With `N#CCn1s/c(=N\C(=O)c2ccccc2)n(CC#N)c1=O`, the IC50 is over 100 µM.

`c1ccc(Nc2nsc(Nc3ccccc3)n2)cc1`: the IC50 was over 100 µM.

`N#CCn1c(=O)[nH]s/c1=N\C(=O)c1ccccc1`: the IC50 was over 100 µM.

For the compound `Cn1s/c(=N\C(=O)c2ccccc2)n(CC(=O)O)c1=O`, the IC50 is over 100 µM.

Take `CCOC(=O)c1nsc(-c2ccccc2)n1`: the IC50 is over 100 µM.
